System: primary rat mixed cortical cells
Assay: In vitro myelination assay (MBP positive myelin strands, fold myelin pixels above background)
Assay type: cell-based
Details: for fold induction at 1 µM / fold induction at 10 µM: Rattus norvegicus, read-out: Fold myelin pixels above background relative to baseline of no added compound
Outline: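 Myelination read as total MBP-immunopositive strand pixels per well, imaged at 10× after fixation on day 14 and expressed relative to untreated wells, at 1.0 and 10.0 μM. Cells: dissociated postnatal day 1 rat cortex, cultured two weeks with compound, re-dosed at days 6 and 10.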

Row | Compound | fold induction at 1 µM (1.0 μM compound) | fold induction at 10 µM (10.0 μM compound) | Fold myelin pixels above background relative to baseline of no added compound (1.0 μM compound) | Fold myelin pixels above background relative to baseline of no added compound (10.0 μM compound)
1 | CCC(O)CN1CCN(c2cc(C)cc(Nc3ncn(-c4cc(F)cc(F)c4)n3)c2)CC1 (stereo not drawn) [Compound 957, 1-[4-[3-[[1-(3,5-difluorophenyl)-1,2,4-triazol-3-yl]amino]-5-methyl-phenyl]piperazin-1-yl]butan-2-ol] | 10 to 100 | ≤ 1 | – | –
2 | Cc1cc(Nc2ncn(-c3cc(F)cc(F)c3)n2)cc(N2CCOC(CCO)C2)c1 (stereo not drawn) [Compound 958, 2-[4-[3-[[1-(3,5-difluorophenyl)-1,2,4-triazol-3-yl]amino]-5-methyl-phenyl]morpholin-2-yl]ethanol] | 10 to 100 | ≤ 1 | – | –
3 | [2H]C([2H])([2H])C(=O)N1C([2H])([2H])C([2H])([2H])N(c2cc(C)cc(Nc3ncn(-c4cc(F)cc(F)c4)n3)c2)C([2H])([2H])C1([2H])[2H] [Compound 959, 2,2,2-trideuterio-1-[2,2,3,3,5,5,6,6-octadeuterio-4-[3-[[1-(3,5-difluorophenyl)-1,2,4-triazol-3-yl]amino]-5-methyl-phenyl]piperazin-1-yl]ethanone] | 1 to 10 | ≤ 1 | – | –
4 | CCC(CN1CCOCC1)Nc1cc(C)cc(Nc2ncn(-c3cc(F)cc(F)c3)n2)c1 (stereo not drawn) [Compound 960, N3-[1-(3,5-difluorophenyl)-1,2,4-triazol-3-yl]-5-methyl-N1-[1-(morpholinomethyl)propyl]benzene-1,3-diamine] | 1 to 10 | ≤ 1 | – | –
5 | [2H]C1([2H])N(C(=O)C2CC2)C([2H])([2H])C([2H])([2H])N(c2cc(C)cc(Nc3ncn(-c4cc(F)cc(F)c4)n3)c2)C1([2H])[2H] [Compound 961, cyclopropyl-[2,2,3,3,5,5,6,6-octadeuterio-4-[3-[[1-(3,5-difluorophenyl)-1,2,4-triazol-3-yl]amino]-5-methyl-phenyl]piperazin-1-yl]methanone] | 1 to 10 | 1 to 10 | – | –
6 | CCOCCOC1CCN(c2cc(C)cc(Nc3ncn(-c4cc(F)cc(F)c4)n3)c2)CC1 [Compound 962, 1-(3,5-difluorophenyl)-N-[3-[4-(2-ethoxyethoxy)-1-piperidyl]-5-methyl-phenyl]-1,2,4-triazol-3-amine] | 1 to 10 | 1 to 10 | – | –
7 | Cc1cc(OCC(=O)N2CCCC2)cc(Nc2ncn(-c3cc(F)cc(F)c3)n2)c1C [Compound 965, 2-[3-[[1-(3,5-difluorophenyl)-1,2,4-triazol-3-yl]amino]-4,5-dimethyl-phenoxy]-1-pyrrolidin-1-yl-ethanone] | 10 to 100 | 10 to 100 | – | –
8 | Cc1cc(Nc2ncn(-c3cccnc3)n2)cc(N2CC3(C2)CN(C(C)C)C3)c1 [Compound 966, N-[3-(2-isopropyl-2,6-diazaspiro[3.3]heptan-6-yl)-5-methyl-phenyl]-1-(3-pyridyl)-1,2,4-triazol-3-amine] | 1 to 10 | ≤ 1 | – | –
9 | Cc1cc(Nc2ncn(-c3cnccn3)n2)cc(N2CC3(C2)CN(C(C)C)C3)c1 [Compound 967, N-[3-(2-isopropyl-2,6-diazaspiro[3.3]heptan-6-yl)-5-methyl-phenyl]-1-pyrazin-2-yl-1,2,4-triazol-3-amine] | 10 to 100 | ≤ 1 | – | –
10 | Cc1cc(NCC2CN(C3CC3)CCO2)cc(Nc2ncn(-c3cc(F)cc(F)c3)n2)c1 (stereo not drawn) [Compound 968, N3-[(4-cyclopropylmorpholin-2-yl)methyl]-N1-[1-(3,5-difluorophenyl)-1,2,4-triazol-3-yl]-5-methyl-benzene-1,3-diamine] | 1 to 10 | 1 to 10 | – | –
11 | Cc1cc(Nc2ncn(-c3cc(F)cc(F)c3)n2)c(F)c(N(C)C2COC2)c1 [Compound 969, N3-[1-(3,5-difluorophenyl)-1,2,4-triazol-3-yl]-2-fluoro-N1,5-dimethyl-N1-(oxetan-3-yl)benzene-1,3-diamine] | 1 to 10 | ≤ 1 | – | –
12 | Cc1cc(Nc2ncn(-c3cc(F)cc(F)c3)n2)cc(NC2CCOC(C)(C)C2)c1 (stereo not drawn) [Compound 970, N3-[1-(3,5-difluorophenyl)-1,2,4-triazol-3-yl]-N1-(2,2-dimethyltetrahydropyran-4-yl)-5-methyl-benzene-1,3-diamine] | 10 to 100 | ≤ 1 | – | –
13 | CC(=O)N1CC(Oc2cc(C)c(C)c(Nc3ncn(-c4cc(F)cc(F)c4)n3)c2)C1 [Compound 971, 1-[3-[3-[[1-(3,5-difluorophenyl)-1,2,4-triazol-3-yl]amino]-4,5-dimethyl-phenoxy]azetidin-1-yl]ethanone] | 1 to 10 | 1 to 10 | – | –
14 | Cc1cc(Nc2ncn(-c3cc(F)cc(F)c3)n2)cc(N2CCOC(C3CCCO3)C2)c1 (stereo not drawn) [Compound 972, 1-(3,5-difluorophenyl)-N-[3-methyl-5-(2-tetrahydrofuran-2-ylmorpholin-4-yl)phenyl]-1,2,4-triazol-3-amine] | – | – | − (≤1) | + (>1 to 10x)
15 | CCOCCN1CCN(c2cc(C)cc(Nc3ncn(-c4cc(F)cc(F)c4)n3)c2)CC1 [Compound 973, 1-(3,5-difluorophenyl)-N-[3-[4-(2-ethoxyethyl)piperazin-1-yl]-5-methyl-phenyl]-1,2,4-triazol-3-amine] | 10 to 100 | ≤ 1 | – | –
16 | CCC1COC(C)CN1CCNc1cc(C)cc(Nc2ncn(-c3cc(F)cc(F)c3)n2)c1 (stereo not drawn) [Compound 974, N3-[1-(3,5-difluorophenyl)-1,2,4-triazol-3-yl]-N1-[2-(5-ethyl-2-methyl-morpholin-4-yl)ethyl]-5-methyl-benzene-1,3-diamine] | 10 to 100 | ≤ 1 | – | –
17 | Cc1cc(Nc2ncn(-c3cc(F)cc(F)c3)n2)cc(N2CC(N3CCN(C)CC3)C2)c1 [Compound 975, 1-(3,5-difluorophenyl)-N-[3-methyl-5-[3-(4-methylpiperazin-1-yl)azetidin-1-yl]phenyl]-1,2,4-triazol-3-amine] | 1 to 10 | ≤ 1 | – | –
18 | CCOC1CCN(c2cc(C)cc(Nc3ncn(-c4cc(F)cc(F)c4)n3)c2)CC1 [Compound 976, 1-(3,5-difluorophenyl)-N-[3-(4-ethoxy-1-piperidyl)-5-methyl-phenyl]-1,2,4-triazol-3-amine] | 1 to 10 | 10 to 100 | – | –
19 | Cc1cc(Nc2ncn(-c3ccc(F)c(F)c3)n2)cc(N2CC3(C2)CN(C(C)C)C3)c1 [Compound 977, 1-(3,4-difluorophenyl)-N-[3-(2-isopropyl-2,6-diazaspiro[3.3]heptan-6-yl)-5-methyl-phenyl]-1,2,4-triazol-3-amine] | 1 to 10 | ≤ 1 | – | –
20 | Cc1cc(Nc2ncn(-c3ccc(F)c(F)c3)n2)c(F)c(OC2CCOC2)c1 (stereo not drawn) [Compound 978, 1-(3,4-difluorophenyl)-N-(2-fluoro-5-methyl-3-tetrahydrofuran-3-yloxy-phenyl)-1,2,4-triazol-3-amine] | 10 to 100 | 1 to 10 | – | –
21 | [2H]C1([2H])N(c2cc(C)cc(Nc3ncn(-c4cc(F)cc(F)c4)n3)c2)C([2H])([2H])C([2H])([2H])N(C2COC2)C1([2H])[2H] [Compound 979, 1-(3,5-difluorophenyl)-N-[3-methyl-5-[2,2,3,3,5,5,6,6-octadeuterio-4-(oxetan-3-yl)piperazin-1-yl]phenyl]-1,2,4-triazol-3-amine] | 100 to 1000 | ≤ 1 | – | –
